# Measured values published in patent publication US5378716A, “Pyrazol-1-yl phenoxyacetic acid compounds which have useful pharmaceutical utility” (Ono Pharmaceutical Co., Ltd., priority 1992, dated 1995).
# Legend:
# [1] = target: T1, PGI2 receptor in the human blood platelet membrane fraction (Homo sapiens, UniProt P43119); test: Inhibitory activity on binding of [^3 H]-iloprost to PGI2 receptor in the human blood platelet membrane fraction; conditions: 10 nM [^3 H]-iloprost, human blood platelet membrane fraction (0.3 mg protein), pH 7.4, 24° C., 30 min; read-out: IC50, inhibition of [^3 H]-iloprost binding to PGI2 receptor
# T1 construct: human blood platelet membrane fraction (0.3 mg protein) was added; from tissue; host or cells: human blood platelets (membrane fraction)
# Procedure: i) Inhibitory activity on binding of [^3 H]-iloprost to PGI2 receptor in the human blood platelet membrane fraction
# 50 mM Tris-HCl buffer (pH 7.4) containing 15 mM MgCl2, 5 mM EDTA and 10 nM [^3 H]-iloprost were used as reaction medium. To 0.2 ml of the reaction medium, human blood platelet membrane fraction (0.3 mg protein) was added with or without a test compound. The mixture was incubated at 24° C. for 30 min. After incubation, 4 ml of ice-cold 10 mM Tris-HCl buffer (pH 7.4) was added to the reaction mixture, the mixture was filtered through Whatman GF/B glass fiber filter and washed 4 times with 4 ml of ice-cold 10 mM Tri-HCl buffer (pH 7.4) to separate bound and free [^3 H]-iloprost. After washing, the filter was dried and radioactivity was counted. Non-specific binding was obtained by performing parallel binding experiments in the presence of 10 μM non-labelled iloprost. Specific binding was calculated by subtracting the non-specific binding from the total binding.
# The inhibitory effect of a test compound was calculated from the following equation.
# The percentage of inhibition (%)=100-(B1 /B0 ×100)
# B1 :specific [^3 H]-iloprost binding in the presence of a test compound
# B0 :specific [^3 H]-iloprost binding in the absence of a test compound
# [2] = system: human blood platelet aggregation; test: Inhibitory effect on human blood platelet aggregation (ADP-induced, platelet-rich plasma); assay type: cell-based; conditions: human PRP (5×10^5 platelets/mm^3), compound added 1 minute prior to ADP (4 μm), read-out: IC50, inhibition of human blood platelet aggregation
# Procedure: ii) Inhibitory effect on human blood platelet aggregation
# Platelet-rich plasma (PRP) was prepared from human blood (5×10^5 platelets/mm^3) and a test compound was added to PRP 1 minute prior to the addition of ADP (4 μm). The aggregation was monitored using a platelet aggregometer (NBS HEMA TRACER 601, Niko Bioscience, Japan).
# T1 sequence (P43119 whole entry): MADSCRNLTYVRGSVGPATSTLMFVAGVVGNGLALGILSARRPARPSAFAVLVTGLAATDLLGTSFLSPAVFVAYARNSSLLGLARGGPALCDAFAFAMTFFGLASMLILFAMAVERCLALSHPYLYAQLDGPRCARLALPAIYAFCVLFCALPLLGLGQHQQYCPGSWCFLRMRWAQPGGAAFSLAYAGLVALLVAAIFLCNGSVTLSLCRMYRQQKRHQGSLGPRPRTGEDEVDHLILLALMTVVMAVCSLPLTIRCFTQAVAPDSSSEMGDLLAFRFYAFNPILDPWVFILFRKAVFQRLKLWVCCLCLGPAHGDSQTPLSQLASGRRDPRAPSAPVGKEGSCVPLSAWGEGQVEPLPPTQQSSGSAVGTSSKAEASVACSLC
IC50 [1] [nM],IC50 [2] [nM],Compound
1500,,"O=C(O)COc1cccc(CCCC(=O)N(Cc2ccccc2)Cc2ccccc2)c1 [8(l), 3-[3-(N,N-Dibenzylaminocarbonyl)propyl]phenoxyacetic acid]"
2000,3100,"O=C(O)COc1cccc(CCCC(=O)NC(c2ccccc2)c2ccccc2)c1 [8(n), 3-(3-Diphenylmethylaminocarbonylpropyl)phenoxyacetic acid]"
460,970,"O=C(O)COc1cccc(CCCC(=O)NN(c2ccccc2)c2ccccc2)c1 [8(o), 3-[3-[(N,N-Diphenylamino)aminocarbonyl]propyl]phenoxyacetic acid]"
360,240,"O=C(O)COc1cccc(CCCn2ncc(C(c3ccccc3)c3ccccc3)n2)c1 [17(b), 3-[3-(4-Diphenylmethyl-1,2,3-triazol-2-yl)propyl]phenoxyacetic acid]"
270,470,"O=C(O)COc1cccc(CCCn2cc(C(c3ccccc3)c3ccccc3)nn2)c1 [17(c), 3-[3-(4-Diphenylmethyl-1,2,3-triazol-1-yl)propyl]phenoxyacetic acid]"
260,410,"O=C(O)COc1cccc(OCCn2cc(C(c3ccccc3)c3ccccc3)cn2)c1 [17(cc), 3-[2-(4-Diphenylmethylpyrazol-1-yl)ethyloxy]phenoxyacetic acid]"
220,,"O=C(O)COc1cccc(/C=C/Cn2cc(C(c3ccccc3)c3ccccc3)cn2)c1 [17(i), 3-[3-(4-Diphenylmethylpyrazol-1-yl)-1-propenyl]phenoxyacetic acid]"
2000,,O=C(O)COc1ccccc1CCCCn1cc(C(c2ccccc2)c2cccnc2)cn1 (stereo not drawn) [17(n)]
780,3200,"Cc1c(/C=C/Cn2cc(C(c3ccccc3)c3ccccc3)cn2)cccc1OCC(=O)O [17(s), 2-Methyl-3-[3-(4-diphenylmethylpyrazol-1-yl)-1-propenyl]phenoxyaceticacid]"
5000,,"O=C(O)COc1cccc(CCCON=C(c2ccccc2)c2cccnc2)c1 [17(x), 3-[3-[1-Phenyl-1-(3-pyridyl)methylideneaminooxy]propyl]phenoxyacetic acid]"
4800,,"O=C(O)COc1cccc(CCCC=NOC(c2ccccc2)c2ccccc2)c1 [Example 2, 3-(4-Diphenylmethyloxyiminobutyl)phenoxyacetic acid]"
1600,3700,"CCCC(CCCc1cccc(OCC(=O)O)c1)=NOC(c1ccccc1)c1ccccc1 [Example 4, 3-(4-Diphenylmethyloxyiminoheptyl)phenoxyacetic acid]"
3000,,"CCCC(CCCc1cccc(OCC(=O)O)c1)NOC(c1ccccc1)c1ccccc1 (stereo not drawn) [Example 6, 3-(4-Diphenylmethyloxyaminoheptyl)phenoxyacetic acid]"
1300,5000,"O=C(O)COc1cccc(CCCCOC(c2ccccc2)c2ccccc2)c1 [Example 12, 3-(4-Diphenylmethyloxybutyl)phenoxyacetic acid]"
4000,,"COC(=O)COc1cccc(CCCC(=O)OC(c2ccccc2)c2ccccc2)c1 [Example 15, Methyl 3-(3-diphenylmethyloxycarbonylpropyl)phenoxyacetate]"
150,420,"O=C(O)COc1cccc(CCCn2cc(C(c3ccccc3)c3ccccc3)cn2)c1 [Example 17, 3-[3-(4-diphenylmethylpyrazol-1-yl)propyl]phenoxyacetic acid]"
120,160,"O=C(O)COc1cccc(CCCc2cc(C(c3ccccc3)c3ccccc3)on2)c1 [Example 19, 3-[3-(5-diphenylmethylisoxazol-3-yl)propyl]phenoxyacetic acid]"
4400,,"O=C(O)COc1cccc(CCCc2nc(C(c3ccccc3)c3ccccc3)no2)c1 [Example 21, 3-[3-(3-diphenylmethyl-1,2,4-oxadiazol-5-yl)propyl]phenoxyacetic acid]"
1500,370,"O=C(O)COc1cccc(CCCc2noc(C(c3ccccc3)c3ccccc3)n2)c1 [Example 23, 3-[3-(5-diphenylmethyl-1,2,4-oxadiazol-3-yl)propyl]phenoxyacetic acid]"
